Literature values as cited in patent publication US9403744B2, “Process for the production of alkyl ethers by the etherification of isobutene” (SAIPEM S.p.A., priority 2006, dated 2016).

Conditions: in water

SMILES | Solubility in H2O [w %]
CCOC(C)(C)C [ETBE, ethyl ter-butyl ether] | 1.2
CCC(C)(C)OC [TAME, methyl ter-amyl ether] | 1.1
